According to PMC7314547, “Echinoderms provide missing link in the evolution of PrRP/sNPF-type neuropeptide signalling” (eLife, 2020):
“Also recorded” adds a separate entry of the source. Where no end group is shown, it is not given here.

Assays:
[1] = test system: NPR-11; conditions: ref Chalasani et al., 2010; cited from earlier work
Text: The nematode C. elegans is a powerful model system for functional characterisation of neuropeptide signalling systems ([Frooninckx et al., 2012]). However, NPY/NPF-type signalling has thus far only been partially characterised in this species. […] However, this peptide shares little sequence similarity with NPY/NPF-typ ...

[2] = test system: A. rubens sNPF/PrRP-type receptor Ar-sNPF/PrRPR; experiment: Receptor activation: luminescence of CHO-K1 cells expressing Ar-sNPF/PrRPR, Gα16 and apoaequorin-GFP fusion (G5A) (CHO-Ar-sNPF/PrRPR); type: cell-based, Asterias rubens; conditions: for luminescence response / receptor activation (in words): at least three independent experiments in triplicate
Description: A cDNA encoding Ar-sNPF/PrRPR was cloned and sequenced (Figure 3—figure supplement 1) and its sequence has been deposited in GenBank under accession number MH807444.1. […] The cloned receptor was then co-expressed with Gα16 in CHO-K1 cells expressing apoaequorin to produce the cell system CHO-Ar-sNPF/PrRPR. Synthetic ArPrRP (p[…]-NH2) was tested as a candidate ligand for Ar-sNPF/PrRPR at concentrations ranging from 10^−14 M to 10^−5 M, comparing with cells incubated in assay media without the addition of the peptide. […] Because ArPrRP contains a potential dibasic cleavage site (see underlined arginine residues in its sequence: p[…]-NH2), we hypothesised that the C-terminal pentapeptide of ArPrRP (LNPRFamide) may also be generated from ArPrRPP in vivo. Therefore, we also tested synthetic LNPRFamide as a candidate ligand for Ar-sNPF/PrRPR. […] Therefore, we conclude that the 22-residue amidated peptide ArPrRP is the natural ligand for Ar-sNPF/PrRPR in A. rubens.
Figure 5. A. rubens PrRP-like peptide ArPrRP acts as a ligand for the A. rubens sNPF/PrRP-type receptor Ar-sNPF/PrRPR. (A) The A. rubens PrRP-like peptide ArPrRP (10^−5 M; red bar) triggers luminescence in CHO-K1 cells expressing the A. rubens PrRP/sNPF-type receptor Ar-sNPF/PrRPR, the promiscuous G-protein Gα16 and the calcium-sensitive luminescent GFP-apoaequorin fusion protein G5A. For comparison, the background luminescence of cells that were not exposed to ArPrRP is shown (basal media; grey bar). Mean values (± S.E.M) were determined from three independent experiments performed in triplicate (B). Graph showing the selectivity of ArPrRP as a ligand for Ar-sNPF/PrRPR. […] Ar-sNPF/PrRPR is not activated by a C-terminal pentapeptide fragment of ArPrRP (LNPRFamide) or by the A. rubens luqin-type peptide ArLQ. Each point represents mean values (± S.E.M) from at least three independent experiments done in triplicate. The raw data for the experiments shown in Figure 5 and in Figure 5—figure supplement 2 can be found in Figure 5—source data 1. Figure 5—source data 1. Data for the graphs shown in Figure 5 and Figure 5—figure supplement 2. Figure 5—figure supplement 1. Predicted topology of Ar-sNPF/PrRPR. Seven predicted transmembrane domains are numbered successively in blue and two predicted N-glycosylation sites are shown with green boxes. This figure was generated using Protter (http://wlab.ethz.ch/protter/start/). [drawing 6] Figure 5—figure supplement 2. […] Each point represents mean values (± S.E.M.) from at least three independent experiments, with each experiment performed in triplicate. [drawing 7]
To enable the pharmacological characterisation of a candidate receptor for the A. rubens NPY/NPF/PrRP-like peptide, a cDNA encoding this receptor was cloned into the eukaryotic expression vector pcDNA 3.1(+) (Invitrogen; Cat. No. V790-20). To facilitate expression of the cloned receptor, the forward primer included a partial Kozak consensus sequence (ACC) and a sequence corresponding to the first 15 bases of the open reading frame of contig 1120879 (ACCATGCAGATGACAACC) and the reverse primer consisted of a stop codon and a sequence reverse complementary to the 3’ region of the open reading frame of contig 1120879 ([…]). PCR was performed using the forward primer and reverse primers, A. rubens radial nerve cord cDNA and Q5 polymerase (NEB; Cat. No. M0491S). […] Successful ligation and the direction of the insert was determined by restriction enzyme digestion and sequencing (TubeSeq service; Eurofins Genomics). […]

[3] = test system: CHO-K1 cells transfected with an empty pcDNA 3.1(+) vector; experiment: Control: luminescence of CHO-K1 (G5A) cells transfected with empty pcDNA 3.1(+) vector; type: cell-based, Cricetulus griseus; conditions: cells transfected with vector alone; at least three independent experiments in triplicate
Description: A cDNA encoding Ar-sNPF/PrRPR was cloned and sequenced (Figure 3—figure supplement 1) and its sequence has been deposited in GenBank under accession number MH807444.1. […] The cloned receptor was then co-expressed with Gα16 in CHO-K1 cells expressing apoaequorin to produce the cell system CHO-Ar-sNPF/PrRPR. Synthetic ArPrRP (p[…]-NH2) was tested as a candidate ligand for Ar-sNPF/PrRPR at concentrations ranging from 10^−14 M to 10^−5 M, comparing with cells incubated in assay media without the addition of the peptide. […] Because ArPrRP contains a potential dibasic cleavage site (see underlined arginine residues in its sequence: p[…]-NH2), we hypothesised that the C-terminal pentapeptide of ArPrRP (LNPRFamide) may also be generated from ArPrRPP in vivo. Therefore, we also tested synthetic LNPRFamide as a candidate ligand for Ar-sNPF/PrRPR. […]
Figure 5. […] (A) The A. rubens PrRP-like peptide ArPrRP (10^−5 M; red bar) triggers luminescence in CHO-K1 cells expressing the A. rubens PrRP/sNPF-type receptor Ar-sNPF/PrRPR, the promiscuous G-protein Gα16 and the calcium-sensitive luminescent GFP-apoaequorin fusion protein G5A. For comparison, the background luminescence of cells that were not exposed to ArPrRP is shown (basal media; grey bar). Mean values (± S.E.M) were determined from three independent experiments performed in triplicate (B). […]

Substance | receptor activation (in words) [1] | luminescence response / receptor activation (in words) [2] | ligand potency (in words) [2] | luminescence response relative to background (basal media) ([2]; 10^-5 M, mean of three independent experiments in triplicate) | EC50 ([2]; 10^-14 M to 10^-5 M in DMEM/F12, luminescence integrated over 30 s, four-parameter curve, at least three independent transfections in triplicate, read-out: EC50 (half-maximal response concentration)) | luminescence response (in words) [3]
MDANAFRMSF-NH2 | only showed activation at peptide concentrations of 10 and 30 µM |  |  |  |  | 
LNPRFamide [C-terminal pentapeptide of ArPrRP] |  | did not induce luminescence responses; also recorded: not activated |  |  |  | 
pQDRSKAMQAERTGQLRRLNPRF-NH2 [ArPrRP, 22-residue amidated starfish PrRP-type neuropeptide, custom synthesised] |  | induced dose-dependent luminescence; also recorded: causes dose-dependent luminescence | potent ligand | approximately five times the background luminescence | 0.15 nM | no response; also recorded: does not trigger luminescence
